# ChEMBL document CHEMBL1135371, “Synthesis and pharmacology of isoquinuclidine derivatives as 5-HT(3) ligands” (Bioorg Med Chem Lett, 2002)
# Legend:
# [1] = molecular target: T1, Serotonin 3 (5-HT3) receptor (Rattus norvegicus, UniProt P35563+Q9JJ16); assay: Binding affinity towards 5-HT3 receptor in rat was evaluated
# T1 sequence (P35563 whole entry): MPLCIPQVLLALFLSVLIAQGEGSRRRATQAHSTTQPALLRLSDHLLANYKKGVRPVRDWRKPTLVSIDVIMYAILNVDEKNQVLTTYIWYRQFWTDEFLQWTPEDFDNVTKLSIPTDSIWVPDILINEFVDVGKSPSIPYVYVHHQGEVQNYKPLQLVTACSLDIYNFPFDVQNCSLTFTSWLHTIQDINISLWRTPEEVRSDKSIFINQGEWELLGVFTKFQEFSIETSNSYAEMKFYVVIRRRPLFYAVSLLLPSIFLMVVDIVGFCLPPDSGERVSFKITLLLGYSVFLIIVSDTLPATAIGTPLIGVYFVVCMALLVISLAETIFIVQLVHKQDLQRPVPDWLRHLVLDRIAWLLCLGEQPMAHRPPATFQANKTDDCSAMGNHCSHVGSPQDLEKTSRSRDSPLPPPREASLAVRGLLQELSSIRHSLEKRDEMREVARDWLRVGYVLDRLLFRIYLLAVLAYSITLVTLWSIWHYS
# T1 sequence (Q9JJ16 whole entry): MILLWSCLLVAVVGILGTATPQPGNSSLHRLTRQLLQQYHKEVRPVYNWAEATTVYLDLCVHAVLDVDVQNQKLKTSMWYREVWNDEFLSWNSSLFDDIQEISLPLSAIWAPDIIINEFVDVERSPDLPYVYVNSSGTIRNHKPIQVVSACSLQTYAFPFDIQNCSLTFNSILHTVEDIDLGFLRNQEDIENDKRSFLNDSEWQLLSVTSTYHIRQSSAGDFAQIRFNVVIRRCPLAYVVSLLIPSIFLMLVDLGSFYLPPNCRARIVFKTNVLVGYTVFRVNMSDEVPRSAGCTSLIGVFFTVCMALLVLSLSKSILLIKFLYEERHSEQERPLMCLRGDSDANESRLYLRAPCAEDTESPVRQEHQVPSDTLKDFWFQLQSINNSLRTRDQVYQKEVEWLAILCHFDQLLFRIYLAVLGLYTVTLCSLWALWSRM
# [2] = molecular target: T2, D(2) dopamine receptor (Rattus norvegicus, UniProt P61169); assay: Binding affinity towards Dopamine receptor D2 in rat was evaluated
# [3] = molecular target: T3, 5-hydroxytryptamine receptor 4 (Cavia porcellus, UniProt O70528); assay: Binding affinity towards 5-HT4 receptor in striatum membranes of guinea-pig brain was evaluated; format: cell membranes, Membrane
# [4] = molecular target: T3, 5-hydroxytryptamine receptor 4; assay: Binding affinity towards 5-hydroxytryptamine 4 receptor in striatum membranes of guinea-pig brain was evaluated; format: cell membranes, Membrane
# [5] = molecular target: T2, D(2) dopamine receptor; assay: Binding affinity towards D2 receptor in rat was evaluated
# [6] = molecular target: T1, Serotonin 3 (5-HT3) receptor; assay: Binding affinity towards rat 5-hydroxytryptamine 3 receptor was evaluated; format: protein-complex assay
# T2 sequence (P61169 whole entry): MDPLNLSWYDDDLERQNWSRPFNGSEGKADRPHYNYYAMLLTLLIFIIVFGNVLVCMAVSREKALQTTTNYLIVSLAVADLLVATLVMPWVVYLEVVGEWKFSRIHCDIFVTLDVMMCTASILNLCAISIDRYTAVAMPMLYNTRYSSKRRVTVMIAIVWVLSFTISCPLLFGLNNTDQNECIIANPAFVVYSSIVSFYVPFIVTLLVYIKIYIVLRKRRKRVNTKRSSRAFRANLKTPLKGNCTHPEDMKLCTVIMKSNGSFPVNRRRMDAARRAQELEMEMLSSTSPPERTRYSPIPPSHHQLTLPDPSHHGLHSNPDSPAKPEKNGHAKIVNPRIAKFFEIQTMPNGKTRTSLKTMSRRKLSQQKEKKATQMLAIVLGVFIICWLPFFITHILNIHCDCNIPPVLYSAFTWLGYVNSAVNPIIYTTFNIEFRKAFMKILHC
# T3 sequence (O70528 whole entry): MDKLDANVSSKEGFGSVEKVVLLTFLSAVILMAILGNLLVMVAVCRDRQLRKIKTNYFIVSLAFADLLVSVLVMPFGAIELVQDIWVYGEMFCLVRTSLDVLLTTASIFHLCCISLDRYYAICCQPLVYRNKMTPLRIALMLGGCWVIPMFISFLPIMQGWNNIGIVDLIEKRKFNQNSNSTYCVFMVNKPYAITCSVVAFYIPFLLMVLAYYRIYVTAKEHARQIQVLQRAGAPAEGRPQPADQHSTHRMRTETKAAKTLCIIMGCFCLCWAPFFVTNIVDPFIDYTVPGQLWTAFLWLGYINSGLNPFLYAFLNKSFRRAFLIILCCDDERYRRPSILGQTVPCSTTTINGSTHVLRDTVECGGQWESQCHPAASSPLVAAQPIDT
SMILES,IC50 [1] [nM],Ki [1] [nM],IC50 [2] [nM],IC50 [3] [nM],IC50 [4] [nM],IC50 [5] [nM],further results
COc1cc(N)c(Cl)cc1C(=O)NC1CC2CCC1N(C)C2 (centres undefined),> 1000,327,> 1000,> 1000,1000,1000,
COc1cc(N)c(Cl)cc1C(=O)OC1CC2CCC1CN2C (stereo in doubt; anti),,5.19,> 1000,,,,Ki [4]: 82.6 nM
COc1cc(N)c(Cl)cc1C(=O)OC1CC2CCC1N(C)C2 (stereo in doubt; anti),,13.8,> 1000,,> 1000,,
COc1cc(N)c(Cl)cc1C(=O)NC1CC2CCC1CN2C (stereo in doubt; anti),17300,,,,> 1000,,Ki [2]: 130 nM
COc1cc(N)c(Cl)cc1C(=O)OC1CC2CCC1CN2C (stereo in doubt; syn),,11.2,,,,> 1000,Ki [3]: 240 nM
COc1cc(N)c(Cl)cc1C(=O)OC1CC2CCC1N(C)C2 (stereo in doubt; syn),,192,,> 1000,,> 1000,
COc1cc(N)c(Cl)cc1C(=O)NC1CC2CCC1CN2C (stereo in doubt; syn),1000,,,1000,,,Ki [5]: 842 nM
CN1C2CCCC1CC(NC(=O)c1nn(C)c3ccccc13)C2 (centres undefined) [GRANISETRON],,,,> 1000,,> 1000,
CN1[C@@H]2CC[C@H]1C[C@@H](OC(=O)c1c[nH]c3ccccc13)C2 [TROPISETRON],,,> 1000,,,,Ki [6]: 1.55 nM; Ki [4]: 125 nM
